Assay results: patent US7956040B2, “Combination of catechin and quercetin for pharmaceutical or dietary use” (Giuliani International Limited, priority 2000, dated 2011)

Key:
[1] = system: platelets; test: Platelet aggregation in vitro caused by collagen (according to Born); assay type: cell-based, human; conditions: for influence on platelet aggregation: 25 μmol of catechin/L or 5 μmol of quercetin/L used on their own; for platelet aggregation caused by collagen: catechin or quercetin alone, two concentrations of collagen (2 and 4 mg/L)
Procedure: DCFH-DA was added to the PSEC (final concentration: 40 μmol/L); after 15 minutes of incubation with or without catechin or quercetin, the PSEC were activated with collagen. […] The samples were analysed in a Coulter XL-MCL flow cytometer (Hialeah, Fla.) equipped with an argon laser (emission 480 nm) set up for measuring the logarithmic diffusion of direct light, which is a measure of the dimensions of the particle; logarithmic diffusion of light at 90°, which is a measure of the granularity of the cell; and green fluorescence (DCF) 510-550 nm. The fluorescence signal generated by the probe was expressed as the stimulation index, i.e. intensity of mean channel fluorescence of the stimulated platelets/intensity of mean channel fluorescence of the unstimulated platelets. Platelet aggregation in vitro was evaluated according to Born. The collagen was used at concentrations of 2-4 mg/L.

[2] = system: phospholipase C; test: Activation of phospholipase C: IP3 production in collagen-stimulated platelets; conditions: for decrease in IP3 production: 10 mg of collagen/L; for production of [32P]IP3 in platelets stimulated by collagen: catechin or quercetin alone
Procedure: Drug-free human blood obtained from healthy volunteers was coagulated with acid:citrate:dextrose. Platelet-rich plasma was centrifuged at 800×g for 20 min at room temperature and the pellet was suspended in a volume equal to half the initial volume of autologous plasma, low in platelets. The platelet suspensions were incubated for 1 h at 37° C. with 3 μmol of Fura 2/AM per L, 40 μmol DCFH-DA/L, 7.4 GBq (2 Ci) ^32Pi/L, or 3.7 MBq (1 mCi) [^3H]oleic acid/L. The platelets were washed by exclusion chromatography on Sepharose 2B using a Ca^2+-free Tyrodes buffer (134 mmol NaCl/L, 2.9 mmol KCl/L, 0.34 mmol Na2HPO4/L and 2 mmol MgCl2/L) containing 0.2% of bovine serum albumin, 5 mmol glucose/L and 10 mmol HEPES/L, pH 7.35.
The production of 1,3,4-inositol triphosphate (IP3, an indicator of activation of phospholipase C, was analysed 30 s after platelet activation according to Pulcinelli et al. J. Chromatogr. 1992,575:51-5. The collagen was used at a concentration of 10 mg/L, which was the lowest concentration capable of inducing a reproducible response. The platelet suspensions identified with [^3H]oleic acid were used for evaluating platelet adhesion to collagen (50 mg/L) according to Smith and Dangelmaier.

[3] = system: platelets; test: Cytosol platelet Ca2+ concentration / calcium mobilization (Fura 2) after collagen; assay type: cell-based, human; conditions: for decrease in calcium mobilization: 4 mg of collagen/L; for mobilization of calcium (percentage change in intracellular calcium concentration): catechin or quercetin alone
Procedure: The concentrations of cytosol platelet Ca^2+ were measured using the fluorescent indicator dye Fura 2, according to Grynkiewicz et al.; the changes in fluorescence were then monitored with a fluorimeter SFM 25 (Kontron, Zurich, Switzerland) set at emission wavelength of 510 nm and excitation wavelength of 340 nm.

[4] = system: platelets; test: Production of hydrogen peroxide in DCFH-DA-loaded platelets stimulated with collagen (flow cytometry); assay type: cell-based, human; conditions: for production of hydrogen peroxide caused by collagen: catechin or quercetin alone, scalar concentrations (Cat 50 and 100, Q 10 and 20 μmol/L), 10 and 20 mg of collagen/L; for formation of hydrogen peroxide caused by collagen: each compound alone at the low quantities (catechin 25 μmol/L; quercetin 5 μmol/L)
Procedure: DCFH-DA was added to the PSEC (final concentration: 40 μmol/L); after 15 minutes of incubation with or without catechin or quercetin, the PSEC were activated with collagen. The reaction was stopped with 2 mmol EGTA/L after 1 min. The samples were analysed in a Coulter XL-MCL flow cytometer (Hialeah, Fla.) equipped with an argon laser (emission 480 nm) set up for measuring the logarithmic diffusion of direct light, which is a measure of the dimensions of the particle; logarithmic diffusion of light at 90°, which is a measure of the granularity of the cell; and green fluorescence (DCF) 510-550 nm. The fluorescence signal generated by the probe was expressed as the stimulation index, i.e. intensity of mean channel fluorescence of the stimulated platelets/intensity of mean channel fluorescence of the unstimulated platelets. Platelet aggregation in vitro was evaluated according to Born. The collagen was used at concentrations of 2-4 mg/L.
Flow cytometry makes use of the properties of DCFH-DA, which diffuses rapidly through the cellular membranes and is then trapped inside the cell through a reaction of deacetylation. In the presence of hydrogen peroxide, this compound is oxidized to dichlorofluorescein (DCF), which is highly fluorescent.

[5] = system: platelet aggregation; conditions: high concentrations, several literature studies; cited from earlier work
[6] = system: platelets; test: Platelet function / platelet activation, overall conclusion of the study; assay type: cell-based, human; conditions: individually at 5 μmol of quercetin/L or 20 μmol of catechin/L (so in the source)
[7] = system: platelets; test: Platelet adhesion to collagen ([3H]oleic acid-labelled platelets); assay type: cell-based, human; conditions: 50 μmol of collagen/L [sic]
Procedure: The activation of platelets by collagen is a multistage process. Thus, after being attached initially to the platelets via the pathways of the second messenger, collagen stimulates the release of thromboxane and ADP, which are important platelet agonists that induce aggregation. To study the adhesion of the platelets to collagen (50 mg/L) without the interference of aggregation and of the activation induced by all the known agonists released by the platelet granules on stimulation by collagen, the platelets were subjected to preincubation with aspirin, a cyclooxygenase inhibitor, with the ADP removal system phosphocreatine and creatine kinase, and with the fibrinogen-fibronectin antagonist RDGS (13).

[8] = 100 μmol catechin/L or 20 μmol quercetin/L
[9] = catechin (50 and 100 μmol/L) or quercetin (10 and 20 μmol/L) on their own

| Compound | inhibition of platelet aggregation ([1]; 20 μmol of quercetin/L, 2 mg/L collagen) [%] | inhibition of platelet aggregation ([1]; 20 μmol of quercetin/L, 4 mg/L collagen) [%] | influence on platelet aggregation [1] | platelet aggregation caused by collagen [1] | decrease in IP3 production ([2]; 20 μmol of quercetin/L) [%] | production of [32P]IP3 in platelets stimulated by collagen [2] | decrease in calcium mobilization ([3]; 20 μmol of quercetin/L) [%] | mobilization of calcium (percentage change in intracellular calcium concentration) [3] | production of hydrogen peroxide caused by collagen [4] | formation of hydrogen peroxide caused by collagen [4] | platelet aggregation in vitro [5] | effect on platelet function [6] | platelet adhesion to collagen [7, 8] | platelet adhesion to collagen [7, 9] | inhibition of platelet aggregation ([1]; 100 μmol of catechin/L, 2 mg of collagen/L) | inhibition of platelet aggregation ([1]; 100 μmol of catechin/L, 4 mg of collagen/L) | decrease in IP3 production ([2]; 100 μmol of catechin/L) [%] | decrease in calcium mobilization ([3]; 100 μmol of catechin/L) [%] |
| --- | --- | --- | --- | --- | --- | --- | --- | --- | --- | --- | --- | --- | --- | --- | --- | --- | --- | --- |
| O=c1c(O)c(-c2ccc(O)c(O)c2)oc2cc(O)cc(O)c12 [quercetin] | 50 | 43 | no influence on platelet aggregation | inhibited platelet aggregation | 93 | inhibited | 65 | inhibited the mobilization of calcium | inhibited the production of hydrogen peroxide | neither of the two compounds alone at such low quantities is reported to have had any inhibitory effect | inhibit platelet aggregation | no effect on platelet function | suppressed significantly | inhibited platelet adhesion to collagen | – | – | – | – |
| Oc1ccc(C=Cc2cc(O)cc(O)c2)cc1 [resveratrol] | – | – | – | – | – | – | – | – | – | – | inhibit platelet aggregation | – | – | – | – | – | – | – |
| catechin | – | – | no influence on platelet aggregation | inhibited platelet aggregation | – | inhibited | – | inhibited the mobilization of calcium | inhibited the production of hydrogen peroxide | neither of the two compounds alone at such low quantities is reported to have had any inhibitory effect | inhibit platelet aggregation | no effect on platelet function | suppressed significantly | inhibited platelet adhesion to collagen | ≈ 75% | ≈ 39% | 50 | 71 |
